# Where “and” joins values, the source holds several entries; their conditions need not be identical. Equal values may be shown once. Read-outs that look alike come from different tables or passages of the source.
# Assays:
# [1] = system: RAW 264.7 monocyte/macrophage murine cells; assay: MTT cytotoxicity on RAW 264.7 cells; format: cell-based; details: Mus musculus
# Procedure: MTT is transformed to formazan in cells with metabolism capacity (viable cells), as the number of viable cells is proportional to formazan concentration; this assay was used to determine the cytotoxicity of the compounds.
# In all experiments, subconfluent monolayer cells were used.
# The effect of compounds on the cell viability was determined by the MTT method (Sigma, St. Louis, MO, USA). The cytotoxicity of the compounds was detected by measuring the absorbance of MTT dye staining of cells with metabolism capacity. […] Finally, after 72 h, 100 μL of MTT solution (0.5 mg/mL) in 50% of PBS and 50% of the medium was added to each well. After 1.5 h of incubation, formazan was re-suspended in 100 μL of DMSO, and each concentration was tested in triplicate.
# (§1) Experimental cytotoxicity data were fitted to a sigmoidal function (y = ymax/ (x/a)^−b) by non-linear regression. […] Similar analyses were performed to obtain the IC50 of NO production (IC50 NO). All shown data are representative of at least two independent experiments performed in triplicate. All quantitative data were summarized as the means ± standard deviation (SD).
# [2] = system: HT29 colon adenocarcinoma cells; assay: HT29 cell cycle arrest and distribution, flow cytometry with PI; format: cell-based, human; details: for decrease in S phase cell percentage / increase of G0/G1 phase population with respect to untreated control: 72 h
# Text: Flow cytometry was used to measure DNA ploidy and to determine possible alterations in cell cycle profiles. […]. […] […]. Changes in the G2/M phase were less significant. Although changes in the cell cycle were observed, they were of a lower magnitude and insignificant for compound 20. Therefore, those changes could be produced by the apoptotic process activation and not by cytostatic or differentiation process induction. […]. Further assays will be necessary to asseverate this point.
# The method was performed by flow cytometry after propidium iodide staining (PI). […]. After that, cells were stored on ice and were stained with 20 µL of 1 mg/mL PI solution just before measurement. Approximately 10 × 10^3 cells were analysed in each experiment. The experiments were performed three times with two replicates per assay. Finally, the samples were analysed using a flow cytometer and the number of cells in each stage of the cell cycle was estimated by fluorescence-associated cell sorting (FACS) at 488 nm in an Epics XL flow cytometer (Coulter Corporation, Hialeah, FL, USA).
# HT29 cells = assay: Annexin V-FITC/PI flow cytometry (apoptosis) in HT29 cells; format: cell-based, human; details: 72 h
# Procedure: Most currently used anticancer drugs trigger the apoptosis process as a key target and induce it in cancer cells. Phosphatidylserine (PS) externalization is a typical characteristic of early phase apoptosis. […].
# As such wise, apoptosis was assessed by flow cytometry using a FACScan (fluorescence-activated cell sorter) flow cytometer (Coulter Corporation, Hialeah, FL, USA). For this assay, 5 × 10^4 HT29 cells were plated in 24-well plates with 1.5 mL of medium and incubated for 24 h. […] The cells were collected and resuspended in a binding buffer (10 mM HEPES/NaOH, pH 7.4, 140 mM NaCl, 2.5 mM CaCl2). At room temperature in darkness, Annexin V-FITC conjugate (1 μg/mL) was then added and incubated for 15 min. Cells were stained with 5 μL of 1 mg/mL PI solution, just before the analysis. In each experiment, approximately 10 × 10^3 cells were analyzed, and the experiment was duplicated twice.
# [3] = system: colon adenocarcinoma HT29 cells; assay: Mitochondrial membrane potential, Rh123/PI flow cytometry in HT29 cells; format: cell-based, human; details: HT29, IC50 and IC80 concentrations, 72 h
# Text: The apoptotic effects of anticancer agents can occur through the activation of two major apoptotic pathways: intrinsic and extrinsic apoptotic pathways, Thus, the study of the loss of the mitochondrial membrane potential (MMP) of tumor cells can provide information on the activation mechanism and the apoptotic pathway induced in response to anticancer compounds. When the mitochondria undergo disruption and are involved in the loss of MMP, the activation is then intrinsic (mitochondrial).
# The electrochemical gradient across the mitochondrial membrane was studied by analytical flow cytometry using dihydrorhodamine (DHR). […] The medium renewal was achieved by adding fresh medium with DHR to a final concentration of […]. […] The fluorescence intensity was measured using a FACScan flow cytometer (fluorescence-activated cell sorter). The experiments were performed three times with two replicates per assay.
# [4] = system: LPS-induced J774.A1 macrophage cells; set-up: method as in PMID 34990974; details: 50 μM, natural compounds; cited from earlier work
# [5] = system: HT29 human colorectal adenocarcinoma cell line; assay: MTT cytotoxicity on HT29 cells; details: HT-29, 72 h
# Procedure: (§2) These studies were performed using the MTT assay, based on formazan dye formation and expressed as a percentage with respect to untreated control cells (100% of cell metabolism).
# (§3) The effect of compounds on the cell viability was determined by the MTT method [27] (Sigma, St. Louis, MO, USA). The cytotoxicity of the compounds was detected by measuring the absorbance of MTT dye staining of cells with metabolism capacity. […] Finally, after 72 h, 100 μL of MTT solution (0.5 mg/mL) in 50% of PBS and 50% of the medium was added to each well. After 1.5 h of incubation, formazan was re-suspended in 100 μL of DMSO, and each concentration was tested in triplicate.
# (§4) Experimental cytotoxicity data were fitted to a sigmoidal function (y = ymax/ (x/a)^−b) by non-linear regression. […] All shown data are representative of at least two independent experiments performed in triplicate. All quantitative data were summarized as the means ± standard deviation (SD).
# [6] = system: LPS-stimulated RAW 264.7 murine macrophage cells; assay: Inhibition of NO production (nitrite, Griess reaction) in LPS-stimulated RAW 264.7 cells; format: cell-based; details: LPS-activated RAW 264.7, 72 h of incubation
# Procedure: The activation of the inflammatory process induces nitric oxide, NO, released as a second messenger. NO production can be used as the main indicator to assess inflammatory activity, which can be measured using nitrite (NO^2–) quantification (proportional to the released NO), determined through the Griess reaction. […] Inhibition percentages were calculated with respect to the increase between positive control (only LPS treated control cells) and negative control (untreated control cells).
# The absorbance was referred to nitrite standard curve to determine the concentration of nitrite in the supernatant of each experimental sample. The percentage of NO production was determined, assigning 100% at the increase between negative control (untreated cells) and positive control (cells only treated with 10 μg/mL of LPS).
# as §1
# [7] = system: RAW 264.7 cells, activated by LPS; assay: Cell cycle distribution of LPS-activated RAW 264.7 cells, flow cytometry with PI; format: cell-based, murine
# Procedure: The cell-cycle distribution was analyzed by flow cytometry with propidium iodide (IP) staining (Figure 3). Significant growth arrest of the cell cycle in LPS-induced RAW 264.7 cells produced 100% detention in the G0/G1 phase (positive control) compared to the negative control (49.6%). After incubation with compound 20, the percentage of cells found in the G0/G1 phase was 29%, 32%, and 36%, respectively, at the assayed concentrations. Similar results were found for compound 16 (35%, 38%, and 39%) after 72 h of incubation at the same concentrations. This decrease was accompanied by the consequent increase in the number of cells in the S phase: 70%, 68%, and 56%, respectively, for compound 20, and 63%, 61%, and 59% for compound 16. […] This recovery of the cell cycle with respect to control cells (only LPS treated) could be a consequence of the anti-inflammatory effect produced by the tested compounds, which increase cell division, rescuing RAW 264.7 cells from LPS-induced arrest during their monocyte/macrophage differentiation process.
# DNA content is directly proportional to the PI fluorescence; it allows us to determine the percentage of cells in each cell cycle phase. Using a fluorescence-activated cell sorter (FACS) at 488 nm in an Epics XL flow cytometer (Coulter Corporation, Hialeah, FL, USA), cell subpopulations could be visualized with different DNA contents. […] By treating cells only with LPS, the positive control was performed. However, the negative control was prepared, exposing cells […]. After treatment, cells were washed twice with PBS and trypsine solution, then resuspended in TBS 1X (10 Mm Tris, 150 Mm NaCl) and then Vindelov buffer (100 mM Tris, 100 Mm NaCl, 10 mg/mL Rnasa, 1 mg/mL PI, pH 8) was added. The samples were placed for 15 min on ice. Immediately before FACS analysis, cells were stained with 20 μL of 1 mg/mL PI solution. Data were analyzed to determine the percentage of cells in each cell cycle phase (G0/G1, S, and G2/M).
# [8] = system: HepG2 human hepatocarcinome cell-line; assay: MTT cytotoxicity on HepG2 cells; details: HepG2, 72 h
# Procedure: as §2, §3, §4
# Staphylococcus aureus = system: Staphylococcus aureus; set-up: method as in PMID 17418286; details: cited from earlier work
# Micrococcus flavus = system: Micrococcus flavus; set-up: method as in PMID 17418286; details: cited from earlier work
# NO = system: NO; set-up: method as in PMID 34990974; details: read-out: NO inhibition IC50; cited from earlier work
compound,measurement,setting,value
"Cc1c2c(cc3c1CCC1C(C)(C)CCCC31C)OC(O)C2 (centres unmarked) [Compound 6, pterolobirin G]",IC20,"[1]; RAW264.7, 72 h",12.7 ± 0.3 µg/mL
same,IC50,"[1]; RAW264.7, 72 h",15 ± 0.32 µg/mL
same,IC80,"[1]; RAW264.7, 72 h",18.6 ± 0.45 µg/mL
same,decrease in S phase cell percentage,"[2]; HT29, IC50 concentration",17.3%
same,increase of G0/G1 phase population with respect to untreated control,"[2]; HT29, IC50 concentration",13.6%
same,decrease in S phase cell percentage,"[2]; HT29, IC80 concentration",30.36%
same,increase of G0/G1 phase population with respect to untreated control,"[2]; HT29, IC80 concentration",29%
same,total apoptosis (early plus late apoptotic cells),"HT29 cells; HT29, IC50 concentration",18.30%
same,early apoptosis,"HT29 cells; HT29, IC80 concentration",48.83%
same,late apoptosis,"HT29 cells; HT29, IC80 concentration",23%
same,total apoptosis (early plus late apoptotic cells),"HT29 cells; HT29, IC80 concentration",80%
same,"changes in mitochondrial membrane potential (MMP), Rh123 staining",[3],did not produce any changes in MMP
same,inhibition of NO production,[4],did not show any significant inhibition of NO production
same,IC50,[5],~3 µg/mL
Cc1c(C=O)c(O)cc2c1CC[C@H]1C(C)(C)CCC[C@]21C [Compound 20],IC20,"[1]; RAW264.7, RAW 264.7, MTT, 72 h of incubation, 20% cell viability inhibition, read-out: IC20",7.86 ± 3.97 µg/mL
same,IC80,"[1]; RAW264.7, RAW 264.7, MTT, 72 h of incubation, 80% cell viability inhibition, read-out: IC80",9.35 ± 0.95 µg/mL
same,IC50,"[1]; RAW264.7, RAW 264.7, MTT, 72 h of incubation, read-out: IC50",8.34 ± 2.51 µg/mL
same,IC50 NO,[6],2.98 ± 0.04 µg/mL
same,IC50,"[6]; Mus musculus, RAW264.7, 72 h",5.71 ± 0.14 µg/mL
same,cells in the S phase,"[7]; ¼ IC50, 72 h",70%
same,percentage of cells in the G0/G1 phase,"[7]; ¼ IC50, 72 h, LPS control 100%, negative control 49.6%",29%
same,changes in the G2/M phase,"[7]; ¼, ½ and ¾ IC50, 72 h",not significant
same,cells in the S phase,"[7]; ½ IC50, 72 h",68%
same,percentage of cells in the G0/G1 phase,"[7]; ½ IC50, 72 h",32%
same,cells in the S phase,"[7]; ¾ IC50, 72 h",56%
same,percentage of cells in the G0/G1 phase,"[7]; ¾ IC50, 72 h",36%
same,cell cycle arrest at the G0/G1 phase (cell percentage),"[2]; HT29, IC50 concentration",63.6%
same,decrease in S phase cell percentage,"[2]; HT29, IC50 concentration",6%
same,increase of G0/G1 phase population with respect to untreated control,"[2]; HT29, IC50 concentration",6%
same,cell cycle arrest at the G0/G1 phase (cell percentage),"[2]; HT29, IC80 concentration",66.6%
same,decrease in S phase cell percentage,"[2]; HT29, IC80 concentration",10.7%
same,increase of G0/G1 phase population with respect to untreated control,"[2]; HT29, IC80 concentration",9%
same,early apoptosis,"HT29 cells; HT29, IC50 concentration",27.57%
same,late apoptosis,"HT29 cells; HT29, IC50 concentration",49.97%
same,total apoptosis (early plus late apoptotic cells),"HT29 cells; HT29, IC50 concentration",76.25%
same,early apoptosis,"HT29 cells; HT29, IC80 concentration",41.40%
same,late apoptosis,"HT29 cells; HT29, IC80 concentration",45.40%
same,total apoptosis (early plus late apoptotic cells),"HT29 cells; HT29, IC80 concentration",80% and 86.8%
same,"changes in mitochondrial membrane potential (MMP), Rh123 staining",[3],did not produce any changes in MMP
same,IC50,"[5]; HT29, MTT, 72 h",~3 µg/mL
same,IC50,[8],8.41 ± 0.3 µg/mL
COC(=O)[C@@]1(C)CCC[C@]2(C)c3cc4occc4c(C)c3CC[C@@H]12 [benthaminin 1],MIC,Staphylococcus aureus,47.8 µM
same,MIC,Micrococcus flavus,47.8 µM
CC(=O)O[C@H]1Cc2c(cc3occc3c2C)[C@@]2(C)CCCC(C)(C)[C@H]12 [sucutinirane C],IC50,NO,24.4 ± 1.34 µM
